{
  "source": "patent US9808511B2",
  "about": "“Method for treating alopecia with B-type natriuretic peptide” (IGISU Co., Ltd., priority 2011, dated 2017)",
  "key": {"androgenetic alopecia [1]": {"test_system": "androgenetic alopecia", "settings": "androgenetic alopecia in males; cited from earlier work"}, "alopecia": {"test_system": "alopecia", "test": "Conclusions from case test results (all types of alopecia)", "type": "in vivo, human", "settings": "external application; for Adverse events resulting from application: all cases", "procedure": "(§1) The test subjects were patients with alopecia areata, androgenetic alopecia, postpartum alopecia, female pattern alopecia, alopecia pityroides, and senile alopecia. Diagnosis and treatment of these test subjects were carried out by the present inventors as physicians.\n(§2) In general, in order to confirm the effect of an external medicine in an individual case, a method involving separate left and right applications is desirable. The separate left and right application method is a method in which, for example, an external medicine containing an active ingredient to be tested is applied to the left-hand side of an affected site, and an external medicine not containing the active ingredient is applied to the right-hand side, thus enabling a therapeutic effect to be confirmed. With regard to the test of the preparation of the present invention, a preparatory test was carried out in accordance with the separate left and right applications method. However, taking into consideration medical ethics, the preparatory test in accordance with the separate left and right applications method was minimized, and when a preparatory test was not carried out, a therapeutic effect was evaluated by comparison between that before application and that after application.\n(§3) In order to carry out evaluation objectively, photographs before and after application of the NP preparation were recorded in all cases. Photographs of some of these cases are shown in the drawings."}, "thin head hair": {"test_system": "thin head hair", "settings": "applied twice a day after hair washing; cited from earlier work"}, "androgenetic alopecia [2]": {"test_system": "androgenetic alopecia", "test": "Case tests: application to hair loss sites of androgenetic alopecia patients", "type": "in vivo, human", "procedure": "as §1\n(§4) Clinical classification of alopecia was carried out in accordance with the Classification of the Japanese Dermatological Association, and evaluation of the severity of alopecia areata was carried out in accordance with the above-mentioned ‘USA Alopecia Areata Evaluation Guidelines’, the area of hair loss being classified using 6 grades of S0 to S5 and the hair loss site being classified using 3 grades of B0 to B2.\nas §2, with “The separate left and right application method is a method in which, for example, an external medicine containing an active ingredient to be tested is applied to the left-hand side of an affected site, and an external medicine not containing the active ingredient is applied to the right-hand side, thus enabling a therapeutic effect to be confirmed.” left out\nPrior to administration of the ANP gel, BNP gel, CNP gel, BNP ointment, and CNP ointment of the present invention, as is routine for dermatological diagnosis and treatment, the test subjects were interviewed regarding age, gender, history of disease, and family history of disease; when an allergic predisposition was suspected, a scratch test against the main allergens and an evaluation thereof were carried out.\nas §3"}, "[3]": {"test_system": "cancer chemotherapy drug-induced alopecia", "test": "Case tests: application to hair loss sites of cancer chemotherapy drug-induced alopecia patients", "type": "in vivo, human"}, "alopecia areata": {"test_system": "alopecia areata", "test": "Case tests: application to bald areas of alopecia areata patients", "type": "in vivo, human", "settings": "previous treatment of the test subject (history); one value per case", "procedure": "as §1, §4\nIn general, in order to confirm the effect of an external medicine in an individual case, a method involving separate left and right applications is desirable. […] However, taking into consideration medical ethics, the preparatory test in accordance with the separate left and right applications method was minimized, and when a preparatory test was not carried out, a therapeutic effect was evaluated by comparison between that before application and that after application. […]\n(§5) In order to carry out evaluation objectively, photographs before and after application of the NP preparation were recorded in all cases. […]"}, "postpartum alopecia": {"test_system": "postpartum alopecia", "test": "Case tests: application to hair loss sites of postpartum alopecia patients", "type": "in vivo, human", "settings": "case C18", "procedure": "as §1\nas §2, with “application. […]” for “application.”\nas §5"}, "female pattern alopecia": {"test_system": "female pattern alopecia", "test": "Case tests: application to thinning hair sites of female pattern alopecia patients", "type": "in vivo, human", "settings": "previous treatment", "procedure": "as §1\nas §2, with “application. […]” for “application.”\nas §5"}, "seborrheic alopecia": {"test_system": "seborrheic alopecia", "test": "Case tests: application to hair loss sites of seborrheic alopecia patients", "type": "in vivo, human", "settings": "previous treatment"}, "alopecia pityroides": {"test_system": "alopecia pityroides", "test": "Case tests: application to hair loss sites of alopecia pityroides patients", "type": "in vivo, human", "settings": "previous treatment", "procedure": "as §1, §2\nPrior to administration of the ANP gel, BNP gel, CNP gel, BNP ointment, and CNP ointment of the present invention, as is routine for dermatological diagnosis and treatment, the test subjects were interviewed regarding age, gender, history of disease, and family history of disease; when an allergic predisposition was suspected, a scratch test against the main allergens and an evaluation thereof were carried out. In dermatological diagnosis and treatment, since there are a relatively large number of patients who have strong immunoreactivity toward a specific allergen, or a disease such as atopic dermatitis that is suspected to be related to having an allergic predisposition, in order to assist diagnosis, an interview with respect to family history and previous history of allergic disease in addition to gender and age, and a scratch test toward the main allergens, are widely carried out as simple supplemental test methods.\nTable 1 to Table 23 show the results of interviews with the test subjects and the results of the scratch test together with evaluation of the diagnostic findings and symptoms of the test subjects carried out in [Example 1] above.\nas §3"}, "[4]": {"settings": "case C35, previous treatment (interview)"}, "[5]": {"settings": "previous treatment of the test subject (history), one value per case"}},
  "note": "Bridges are numbered along the chain shown (N, C = ends). Where no end group is shown, it is not given here.",
  "data": [
    {"compound": "CC(C)(C)NC(=O)[C@H]1CC[C@H]2[C@@H]3CC[C@H]4NC(=O)C=C[C@]4(C)[C@H]3CC[C@]12C", "note": "[Finasteride, finasteride]", "values": [
      {"measurement": "Proportion of patients improved", "setting": "androgenetic alopecia [1]", "value": "about ¼"}
    ]},
    {"compound": "human ANP(1-28) (SLRRSSCFGGRMDRIGAQSGLGCNSFRY; disulfide 7-23; listed as Homo sapiens)", "values": [
      {"measurement": "Therapeutic effect, conclusions from case test results", "setting": "alopecia; agent containing the peptide as an active ingredient", "value": "effective only for alopecia in which there was no erythema, scale, seborrheic desquamation, etc. on the scalp"},
      {"measurement": "Hair growth", "setting": "thin head hair", "value": "downy hair-like hair growth was observed on the frontal region with 1 week of ANP administration"}
    ]},
    {"compound": "O=C(O)CCCC[C@@H]1SC[C@@H]2NC(=O)N[C@@H]21", "note": "[biotin]", "values": [
      {"measurement": "Effect of conventional preparation", "setting": "androgenetic alopecia [2]; previous treatment, cases C39, C26, B29", "value": "there had been no effect"}
    ]},
    {"compound": "COc1ccc2cc1Oc1ccc(cc1)C[C@H]1c3c(cc4c(c3Oc3cc5c(cc3OC)CCN(C)[C@@H]5C2)OCO4)CCN1C", "note": "[cepharanthin]", "values": [
      {"measurement": "Effect of cepharanthin", "setting": "[3]; [4]", "value": "No effect"},
      {"measurement": "Effect of cepharanthin", "setting": "alopecia areata", "value": "there had been no therapeutic effect"}
    ]},
    {"compound": "CC[C@H](C)[C@@H]1NC(=O)[C@H](CCCNC(=N)N)NC(=O)[C@H](CC(=O)O)NC(=O)[C@H](CCSC)NC(=O)[C@H](CCCCN)NC(=O)[C@H](CCCNC(=N)N)NC(=O)CNC(=O)[C@H](Cc2ccccc2)NC(=O)[C@@H](NC(=O)CNC(=O)[C@H](CO)NC(=O)CNC(=O)[C@H](CCC(N)=O)NC(=O)[C@@H](NC(=O)[C@H](CCSC)NC(=O)[C@H](CCCCN)NC(=O)[C@@H]2CCCN2C(=O)[C@@H](N)CO)C(C)C)CSSC[C@@H](C(=O)N[C@@H](CCCCN)C(=O)N[C@H](C(=O)N[C@@H](CC(C)C)C(=O)N[C@@H](CCCN=C(N)N)C(=O)N[C@@H](CCCN=C(N)N)C(=O)N[C@@H](Cc2cnc[nH]2)C(=O)O)C(C)C)NC(=O)CNC(=O)[C@H](CC(C)C)NC(=O)CNC(=O)[C@H](CO)NC(=O)[C@H](CO)NC(=O)[C@H](CO)NC(=O)[C@H](CO)NC1=O", "note": "[BNP, human BNP-32]", "values": [
      {"measurement": "Adverse events resulting from application", "setting": "alopecia", "value": "did not exhibit any adverse events such as local symptoms of irritation, skin atrophy, or an itching sensation"}
    ]},
    {"compound": "COC(=O)CCC[N+](C)(C)C.[Cl-]", "note": "[carpronium chloride]", "values": [
      {"measurement": "Effect of carpronium chloride", "setting": "postpartum alopecia; previous treatment", "value": "No effect"},
      {"measurement": "Effect of conventional preparation", "setting": "postpartum alopecia; previous treatment for 5 months", "value": "thinning hair on the crown had not improved"},
      {"measurement": "Effect of carpronium chloride", "setting": "[3]; [4]", "value": "No effect"},
      {"measurement": "Effect of conventional preparation", "setting": "[3]; case C35, previous application for 6 months", "value": "There had been no effect"},
      {"measurement": "Effect of carpronium chloride", "setting": "female pattern alopecia; case C19", "value": "No effect"},
      {"measurement": "Effect of conventional preparation", "setting": "female pattern alopecia; cases B20, C19", "value": "there had been no effect"},
      {"measurement": "Effect of carpronium chloride", "setting": "seborrheic alopecia; case B21 (=A8, B8)", "value": "No effect"},
      {"measurement": "Effect of carpronium chloride", "setting": "alopecia pityroides; case A13 (=A6, C3, C4)", "value": "No effect"},
      {"measurement": "Effect of carpronium chloride", "setting": "alopecia pityroides; case C30", "value": "No effect"},
      {"measurement": "Effect of carpronium chloride", "setting": "alopecia pityroides; case C33", "value": "No effect"},
      {"measurement": "Effect of carpronium chloride", "setting": "alopecia areata", "value": "No effect"}
    ]},
    {"compound": "CC[C@H](C)[C@@H]1NC(=O)[C@H](CCCNC(=N)N)NC(=O)[C@H](CC(=O)O)NC(=O)[C@H](CC(C)C)NC(=O)[C@H](CCCCN)NC(=O)[C@H](CC(C)C)NC(=O)CNC(=O)[C@H](Cc2ccccc2)NC(=O)[C@@H](NC(=O)CNC(=O)[C@H](CCCCN)NC(=O)[C@H](CO)NC(=O)[C@H](CC(C)C)NC(=O)CN)CSSC[C@@H](C(=O)O)NC(=O)CNC(=O)[C@H](CC(C)C)NC(=O)CNC(=O)[C@H](CO)NC(=O)[C@H](CCSC)NC(=O)[C@H](CO)NC(=O)CNC1=O", "note": "[CNP, human CNP-22]", "values": [
      {"measurement": "Adverse events resulting from application", "setting": "alopecia", "value": "did not exhibit any adverse events such as local symptoms of irritation, skin atrophy, or an itching sensation"}
    ]},
    {"compound": "Nc1cc(N2CCCCC2)nc(N)[n+]1[O-]", "note": "[minoxidil]", "values": [
      {"measurement": "Effect of minoxidil", "setting": "androgenetic alopecia [2]; case B9, previous treatment", "value": "No effect"},
      {"measurement": "Effect of minoxidil", "setting": "androgenetic alopecia [2]; case C16, previous treatment", "value": "No effect"},
      {"measurement": "Effect of minoxidil", "setting": "androgenetic alopecia [2]; [5]", "value": "No effect"},
      {"measurement": "Effect of minoxidil", "setting": "seborrheic alopecia; case A12 (=A9, B11)", "value": "No effect"},
      {"measurement": "Effect of minoxidil", "setting": "seborrheic alopecia; case B22 (=A9, B11)", "value": "No effect"},
      {"measurement": "Effect of minoxidil", "setting": "alopecia pityroides; case B28", "value": "No effect"}
    ]},
    {"compound": "CC1(C)[C@@H](O)CC[C@]2(C)[C@H]3C(=O)C=C4[C@@H]5C[C@@](C)(C(=O)O)CC[C@]5(C)CC[C@@]4(C)[C@]3(C)CC[C@@H]12", "note": "[glycyrrhetinic acid]", "values": [
      {"measurement": "Effect of glycyrrhetinic acid", "setting": "androgenetic alopecia [2]; [5]", "value": "there had been no effect"},
      {"measurement": "Effect of glycyrrhetinic acid", "setting": "seborrheic alopecia; case A12 (=A9, B11)", "value": "No effect"},
      {"measurement": "Effect of glycyrrhetinic acid", "setting": "seborrheic alopecia; case B22 (=A9, B11)", "value": "No effect"}
    ]}
  ]
}
